Source: US9115142B2, “Heterocycle-substituted piperazino-dihydrothienopyrimidines” (Boehringer Ingelheim International GmbH, priority 2007, dated 2015)
Where a name gives a salt, the structure may show the parent alone.

What follows are compounds tested against PDE4B (Homo sapiens, UniProt Q07343) (assay: Scintillation Proximity Assay (SPA) of PDE4B enzymatic activity ([H3]-cAMP cleavage)). Settings: test substance 1 μM; one-hour incubation with [H3]-cAMP and PDE4B at 30° C.
Chain of PDE4B (Q07343 whole entry, species assumed): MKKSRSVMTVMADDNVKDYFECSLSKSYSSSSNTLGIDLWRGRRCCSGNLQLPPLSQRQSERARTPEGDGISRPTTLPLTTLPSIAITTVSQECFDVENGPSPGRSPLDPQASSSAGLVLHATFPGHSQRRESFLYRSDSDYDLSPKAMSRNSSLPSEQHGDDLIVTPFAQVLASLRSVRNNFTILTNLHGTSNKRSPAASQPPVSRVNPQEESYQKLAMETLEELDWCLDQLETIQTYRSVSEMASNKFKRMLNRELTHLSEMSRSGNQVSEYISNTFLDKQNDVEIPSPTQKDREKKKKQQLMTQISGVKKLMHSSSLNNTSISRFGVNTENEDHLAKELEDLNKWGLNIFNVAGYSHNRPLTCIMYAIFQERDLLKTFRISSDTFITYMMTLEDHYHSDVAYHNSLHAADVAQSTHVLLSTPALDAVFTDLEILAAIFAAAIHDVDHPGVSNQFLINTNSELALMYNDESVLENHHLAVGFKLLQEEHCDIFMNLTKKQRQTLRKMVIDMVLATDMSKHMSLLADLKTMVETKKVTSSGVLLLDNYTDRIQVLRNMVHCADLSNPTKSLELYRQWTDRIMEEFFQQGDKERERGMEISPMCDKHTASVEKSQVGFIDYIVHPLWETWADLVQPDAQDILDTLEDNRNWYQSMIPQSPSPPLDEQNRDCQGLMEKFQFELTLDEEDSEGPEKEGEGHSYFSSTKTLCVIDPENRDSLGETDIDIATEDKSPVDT
Assay type: biochemical
Procedure: The Scintillation Proximity Assay (SPA) (GE Healthcare, No. TRKQ7090) was carried out by using the different affinities of cyclic 3″-5″-adenosinemonophosphate (cAMP, low affinity) and linear 5″-adenosinemonophosphate (AMP, high affinity) for yttrium silicate scintillator beads. The cAMP specific phosphodiesterase (PDE) PDE4B cleaves the 3″-phosphoester bond of tritium-labelled [H3]-cAMP to form [H3]-5″-AMP. This [H3]-AMP accumulates on the scintillator beads because of its higher affinity for them and causes scintillation events (flashes of light) which are measured in a Wallac Microbeta Scintillation Counter.
The experiment starts with a one-hour incubation of [H3]-cAMP with the PDE4B enzyme in assay buffer at 30° C., in each case once with the Example substance to be tested (in a concentration of 1 μM) and once without the Example substance to be tested.
After this incubation, the reaction is stopped by the addition of the beads. The beads have an opportunity to settle in the next 45 minutes, then the measurement is carried out in the Scintillation Counter. If the substance is capable of inhibiting the enzymatic activity of the PDE4B, less [H3]-AMP is produced during the incubation phase and fewer scintillation events can be measured.
[O-][S+]1CCc2nc(N3CCN(c4ccncn4)CC3)nc(NC3(CO)CC3)c21 (centres unmarked) [Example 55, {1-[5-oxo-2-(4-pyrimidin-4-yl-piperazin-1-yl)-6,7-=dihydro-5H-5λ^4-thieno[3,2-d]pyrimidin-4-ylamino]-cyclopropyl}-methanol trifluoroacetate] was tested, and the inhibition at 1 µM was 95%. For [O-][S+]1CCc2nc(N3CCN(c4ccncc4)CC3)nc(NC3(CO)CC3)c21 (centres unmarked) [Example 58, {1-[5-oxo-2-(4-pyridin-4-yl-piperazin-1-yl)-6,7-dihydro-5H-5λ^4-thieno[3,2-d]pyrimidin-4-ylamino]-cyclopropyl}-methanol trifluoroacetate], the inhibition at 1 µM was 91%. CN1C[C@@H](Nc2nc(N3CCN(c4ccncn4)CC3)nc3c2[S+]([O-])CC3)CCC1=O (stereo partly drawn) [Example 71, (S)-1-methyl-5-[5-oxo-2-(4-pyrimidin-4-yl-piperazin-1-yl)-6,7-dihydro-5H-5λ^4-thieno[3,2-d]pyrimidin-4-ylamino]-piperidin-2-one] showed an inhibition at 1 µM of 96%. Cn1c(N2CCN(c3nc4c(c(NC5CCOCC5)n3)[S+]([O-])CC4)CC2)nc2cc(F)ccc21 (centres unmarked) [Example 87, {2-[4-(5-fluoro-1-methyl-1H-benzoimidazol-2-yl)-piperazin-1-yl]-5-oxo-6,7-dihydro-5H-5λ^4-thieno[3,2-d]pyrimidin-4-yl}-(tetrahydropyran-4-yl)-amine] was tested, and the inhibition at 1 µM was 96%. Work on [O-][S+]1CCc2nc(N3CCN(c4ccncc4)CC3)nc(NC3CCOCC3)c21 (centres unmarked) [Example 96, [5-oxo-2-(4-pyridin-4-yl-piperazin-1-yl)-6,7-dihydro-5H-5λ^4-thieno[3,2-d]pyrimidin-4-yl]-(tetrahydropyran-4-yl)-amine trifluoroacetate] yielded an inhibition at 1 µM of 93%. In the case of COc1cccc2c1nc(N1CCN(c3nc4c(c(Nc5cccc(F)c5)n3)[S+]([O-])CC4)CC1)n2C (centres unmarked) [Example 108, (3-fluorophenyl)-{2-[4-(4-methoxy-1-methyl-1H-benzimidazol-2-yl)-piperazin-1-yl]-5-oxo-6,7-dihydro-5H-5λ^4-thieno[3,2-d]pyrimidin-4-yl}-amine trifluoroacetate], the inhibition at 1 µM is reported as 95%. CCN1CCc2ncc(N3CCN(c4nc5c(c(Nc6cccc(F)c6)n4)[S+]([O-])CC5)CC3)nc2CC1 (centres unmarked) [Example 109, {2-[4-(7-ethyl-6,7,8,9-tetrahydro-5H-pyrazino[2,3-d]azepin-2-yl)-piperazin-1-yl]-5-oxo-6,7-dihydro-5H-5λ^4-thieno[3,2-d]pyrimidin-4-yl}-(3-fluorophenyl)-amine trifluoroacetate] gave an inhibition at 1 µM of 96%. [O-][S+]1CCc2nc(N3CCN(c4ccncn4)CC3)nc(Nc3cccc(F)c3)c21 (centres unmarked) [Example 113, (3-fluorophenyl)-[5-oxo-2-(4-pyrimidin-4-yl-piperazin-1-yl)-6,7-dihydro-5H-5λ^4-thieno[3,2-d]pyrimidin-4-yl]-amine trifluoroacetate] showed an inhibition at 1 µM of 96%. Work on [O-][S+]1CCc2nc(N3CCN(c4ccnc(O)c4)CC3)nc(Nc3cccc(F)c3)c21 (centres unmarked) [Example 114, 4-{4-[4-(3-fluorophenylamino)-5-oxo-6,7-dihydro-5H-5λ^4-thieno[3,2-d]pyrimidin-2-yl]-piperazin-1-yl}-pyridin-2-ol] yielded an inhibition at 1 µM of 96%. Work on [O-][S+]1CCc2nc(N3CCN(c4ccncc4)CC3)nc(Nc3cccc(F)c3)c21 (centres unmarked) [Example 117, (3-fluorophenyl)-[5-oxo-2-(4-pyridin-4-yl-piperazin-1-yl)-6,7-dihydro-5H-5λ^4-thieno[3,2-d]pyrimidin-4-yl]-amine] yielded an inhibition at 1 µM of 96%. In the case of [O-][S+]1CCc2nc(N3CCN(c4nc(-c5ccc(F)cc5)cs4)CC3)nc(Nc3cccc(F)c3)c21 (centres unmarked) [Example 142, (3-fluorophenyl)-(2-{4-[4-(4-fluorophenyl)-thiazol-2-yl]-piperazin-1-yl}-5-oxo-6,7-dihydro-5H-5λ^4-thieno[3,2-d]pyrimidin-4-yl)-amine], the inhibition at 1 µM is reported as 95%. With [O-][S+]1CCc2nc(N3CCN(c4noc5ccccc45)CC3)nc(Nc3cccc(F)c3)c21 (centres unmarked) [Example 144, [2-(4-benzo[d]isoxazol-3-yl-piperazin-1-yl)-5-oxo-6,7-dihydro-5H-5λ^4-thieno[3,2-d]pyrimidin-4-yl]-(3-fluorophenyl)-amine] the inhibition at 1 µM was 96%. CC(C)[C@H](CO)Nc1nc(N2CCN(c3nc(-c4ccc(F)cc4)cs3)CC2)nc2c1[S+]([O-])CC2 (stereo partly drawn) [Example 148, (R)-2-(2-{4-[4-(4-fluorophenyl)-thiazol-2-yl]-piperazin-1-yl}-5-oxo-6,7-dihydro-5H-5λ^4-thieno[3,2-d]pyrimidin-4-ylamino)-3-m ethylbutan-1-ol] showed an inhibition at 1 µM of 95%. For CC(C)[C@H](CO)Nc1nc(N2CCN(c3noc4ccccc34)CC2)nc2c1[S+]([O-])CC2 (stereo partly drawn) [Example 150, (R)-2-[2-(4-benzo[d]isoxazol-3-yl-piperazin-1-yl)-5-oxo-6,7-dihydro-5H-5λ^4-thieno[3,2-d]pyrimidin-4-ylamino]-3-methylbutan-1-ol], the inhibition at 1 µM was 95%.
